Experimental findings from patent US10160747B2, “Compounds and methods for kinase modulation, and indications therefor” (Plexxikon Inc., priority 2016, dated 2018) are described below.

Assay [1] relates to MOLM-14 D835Y (endogenous FLT3 ITD and transfected FLT3 D835Y). Nature of the assay: MOLM-14 D835Y cell proliferation assay (CellTiter-Glo). The assay is classed as cell-based. The following applies: Homo sapiens, MOLM-14, 72 h; 3 d growth, GMean. A digest of the protocol:
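MOLM-14 cells (FLT3 ITD) carrying D835Y or F691L, 1×10^4 cells/well, eight 1:3 dilutions from 1 μM final, 0.2% DMSO, 3 days at 37 °C, 5% CO2. Viability by CellTiter-Glo luminescence (ATP content); IC50 from concentration-response.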

The target of another assay is T1, c-KIT (Homo sapiens, UniProt P10721).
T1 construct: purchased Millipore 14-559K
Nature of the assay: c-KIT recombinant enzyme kinase assay (AlphaScreen). The assay is classed as biochemical. To be noted: 100 ATP, 8 pt. Put shortly:
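Enzyme plus biotinylated poly(Glu4-Tyr) substrate (30 nM) mixed with compound, then ATP added. Donor beads went in for 20 min at room temperature, then PY20 acceptor beads for 60 min. AlphaScreen read; ATP was 10 μM for FLT3-ITD/D835Y and 100 μM for c-KIT.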

T1 sequence (P10721 26-976): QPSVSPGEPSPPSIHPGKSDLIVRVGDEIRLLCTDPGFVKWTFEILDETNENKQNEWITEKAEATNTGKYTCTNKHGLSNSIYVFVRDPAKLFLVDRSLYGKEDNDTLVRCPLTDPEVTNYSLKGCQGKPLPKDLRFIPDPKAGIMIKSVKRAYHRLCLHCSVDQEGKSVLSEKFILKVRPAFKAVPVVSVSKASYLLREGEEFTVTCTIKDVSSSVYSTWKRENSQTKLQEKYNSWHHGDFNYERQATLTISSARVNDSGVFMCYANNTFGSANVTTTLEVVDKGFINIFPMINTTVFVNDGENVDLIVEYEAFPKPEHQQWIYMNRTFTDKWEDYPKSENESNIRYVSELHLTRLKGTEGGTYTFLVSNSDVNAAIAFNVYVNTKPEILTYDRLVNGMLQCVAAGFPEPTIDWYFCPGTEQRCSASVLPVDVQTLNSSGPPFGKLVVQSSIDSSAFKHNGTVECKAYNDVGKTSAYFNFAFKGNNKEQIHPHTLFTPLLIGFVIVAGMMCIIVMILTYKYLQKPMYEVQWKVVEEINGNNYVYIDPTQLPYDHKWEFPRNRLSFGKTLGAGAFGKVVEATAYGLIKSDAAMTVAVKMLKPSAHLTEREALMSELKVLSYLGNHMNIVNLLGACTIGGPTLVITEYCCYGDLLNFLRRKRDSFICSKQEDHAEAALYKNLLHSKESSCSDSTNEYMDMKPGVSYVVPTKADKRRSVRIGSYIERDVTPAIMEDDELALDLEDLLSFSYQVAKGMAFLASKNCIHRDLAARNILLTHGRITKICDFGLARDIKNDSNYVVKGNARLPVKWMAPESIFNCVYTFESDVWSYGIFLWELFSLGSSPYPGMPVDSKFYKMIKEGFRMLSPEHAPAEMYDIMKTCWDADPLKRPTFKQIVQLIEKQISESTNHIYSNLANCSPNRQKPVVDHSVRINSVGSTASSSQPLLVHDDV

Turning to `O=C(Cc1ccc(-c2cnc(Nc3cnn(C4CC4)c3)nc2)cc1F)Nc1cncc(C(F)(F)F)c1` [Compound P-0238, 2-[4-[2-[(1-cyclopropylpyrazol-4-yl)amino]pyrimidin-5-yl]-2-fluoro-phenyl]-N-[5-(trifluoromethyl)-3-pyridyl]acetamide], the IC50 (in assay [1]; on c-KIT) was 0.0001 to 10 µM in each case.

As to `Cc1ncc(NC(=O)Cc2ccc(-c3cnc(Nc4cnn(C(F)F)c4)nc3)cc2)cc1C(F)(F)F` [Compound P-0210, 2-[4-[2-[[1-(difluoromethyl)pyrazol-4-yl]amino]pyrimidin-5-yl]phenyl]-N-[6-methyl-5-(trifluoromethyl)-3-pyridyl]acetamide], the IC50 (in assay [1]; on c-KIT) was 0.0001 to 10 µM throughout.

For the molecule `CCOc1n[nH]c2ncc(-c3ccc(CC(=O)Nc4cnc(OC)c(C(F)(F)F)c4)cc3F)cc12` [Compound P-0202, 2-[4-(3-ethoxy-1H-pyrazolo[3,4-b]pyridin-5-yl)-3-fluoro-phenyl]-N-[6-methoxy-5-(trifluoromethyl)-3-pyridyl]acetamide], the IC50 (in assay [1]; on c-KIT) was 0.0001 to 10 µM throughout.

As to `O=C(Cc1ccc(-c2cnc(Nc3cnn(C4CC4)c3)nc2)cc1)Nc1cnc(Cl)c(C(F)(F)F)c1` [Compound P-0233, N-[6-chloro-5-(trifluoromethyl)-3-pyridyl]-2-[4-[2-[(1-cyclopropylpyrazol-4-yl)amino]pyrimidin-5-yl]phenyl]acetamide], the IC50 (in assay [1]; on c-KIT) was 0.0001 to 10 µM throughout.

As for `COCCn1cc(Nc2ncc(-c3ccc(CC(=O)Nc4cncc(C(F)(F)F)c4)c(F)c3)cn2)cn1` [Compound P-0267, 2-[2-fluoro-4-[2-[[1-(2-methoxyethyl)pyrazol-4-yl]amino]pyrimidin-5-yl]phenyl]-N-[5-(trifluoromethyl)-3-pyridyl]acetamide], the IC50 (in assay [1]; at c-KIT) was 0.0001 to 10 µM each time.

`CCn1cc(Nc2ncc(-c3ccc(CC(=O)Nc4cnc(C)c(C(F)(F)F)c4)cc3F)cn2)cn1` [Compound P-0248, 2-[4-[2-[(1-ethylpyrazol-4-yl)amino]pyrimidin-5-yl]-3-fluoro-phenyl]-N-[6-methyl-5-(trifluoromethyl)-3-pyridyl]acetamide]: the IC50 (in assay [1]; at c-KIT) was 0.0001 to 10 µM throughout.

As for `O=C(Cc1ccc(-c2cnc(Nc3cnn(C4CC4)c3)nc2)cc1F)Nc1ccc(C(F)(F)F)cn1` [Compound P-0243, 2-[4-[2-[(1-cyclopropylpyrazol-4-yl)amino]pyrimidin-5-yl]-2-fluoro-phenyl]-N-[5-(trifluoromethyl)-2-pyridyl]acetamide], the IC50 (in assay [1]; on c-KIT) was 0.0001 to 10 µM throughout.

With `Cn1cc(Nc2ncc(-c3ccc(CC(=O)Nc4cc(C(F)(F)F)ccn4)cc3F)cn2)cn1` [Compound P-0017, 2-[3-fluoro-4-[2-[(1-methylpyrazol-4-yl)amino]pyrimidin-5-yl]phenyl]-N-[4-(trifluoromethyl)-2-pyridyl]acetamide], the IC50 (in assay [1]; on c-KIT) was 0.0001 to 10 µM each time.

For the molecule `Cc1ncc(NC(=O)Cc2ccc(-c3cnc(Nc4cnn(C)c4C)nc3)cc2)cc1C(F)(F)F` [Compound P-0229, 2-[4-[2-[(1,5-dimethylpyrazol-4-yl)amino]pyrimidin-5-yl]phenyl]-N-[6-methyl-5-(trifluoromethyl)-3-pyridyl]acetamide], the 50% inhibitory concentration (IC50) (in assay [1]; on c-KIT) was 0.0001 to 10 µM throughout.

For the molecule `CC(C)(O)C#Cc1cc2cc(-c3ccc(CC(=O)Nc4cncc(C(F)(F)F)c4)cc3)cnc2[nH]1` [Compound P-0204, 2-[4-[2-(3-hydroxy-3-methyl-but-1-ynyl)-1H-pyrrolo[2,3-b]pyridin-5-yl]phenyl]-N-[5-(trifluoromethyl)-3-pyridyl]acetamide], the half-maximal inhibitory concentration (IC50) (in assay [1]; on c-KIT) was 0.0001 to 10 µM throughout.

Turning to `CCn1cc(Nc2ncc(-c3ccc(CC(=O)Nc4cnc(Cl)c(C(F)(F)F)c4)c(F)c3)cn2)cn1` [Compound P-0260, N-[6-chloro-5-(trifluoromethyl)-3-pyridyl]-2-[4-[2-[(1-ethylpyrazol-4-yl)amino]pyrimidin-5-yl]-2-fluoro-phenyl]acetamide], the IC50 (in assay [1]; on c-KIT) was 0.0001 to 10 µM in each case.

As for `COCCn1cc(Nc2ncc(-c3ccc(CC(=O)Nc4cc(C(F)(F)F)ccn4)c(F)c3)cn2)cn1` [Compound P-0270, 2-[2-fluoro-4-[2-[[1-(2-methoxyethyl)pyrazol-4-yl]amino]pyrimidin-5-yl]phenyl]-N-[4-(trifluoromethyl)-2-pyridyl]acetamide], the IC50 (in assay [1]; on c-KIT) was 0.0001 to 10 µM throughout.

On to `COCCn1cc(Nc2ncc(-c3ccc(CC(=O)Nc4ccc(C(F)(F)F)cn4)cc3)cn2)cn1` [Compound P-0274, 2-[4-[2-[[1-(2-methoxyethyl)pyrazol-4-yl]amino]pyrimidin-5-yl]phenyl]-N-[5-(trifluoromethyl)-2-pyridyl]acetamide], for which the 50% inhibitory concentration (IC50) (in assay [1]; on c-KIT) was 0.0001 to 10 µM throughout.

Regarding `CCn1cc(Nc2ncc(-c3cc(F)c(CC(=O)Nc4cnc(C)c(C(F)(F)F)c4)cc3F)cn2)cn1` [Compound P-0249, 2-[4-[2-[(1-ethylpyrazol-4-yl)amino]pyrimidin-5-yl]-2,5-difluoro-phenyl]-N-[6-methyl-5-(trifluoromethyl)-3-pyridyl]acetamide], the concentration for half-maximal inhibition (IC50) (in assay [1]; on c-KIT) was 0.0001 to 10 µM in each case.

As to `O=C(Cc1ccc(-c2cnc3[nH]c(-c4ccnc(N5CCOCC5)c4)cc3c2)c(F)c1)Nc1cncc(C(F)(F)F)c1` [Compound P-0201, 2-[3-fluoro-4-[2-(2-morpholino-4-pyridyl)-1H-pyrrolo[2,3-b]pyridin-5-yl]phenyl]-N-[5-(trifluoromethyl)-3-pyridyl]acetamide], the IC50 (in assay [1]; at c-KIT) was 0.0001 to 10 µM throughout.

`Cn1cnc(Nc2ncc(-c3cc(F)c(CC(=O)Nc4cc(C(F)(F)F)ccn4)cc3F)cn2)c1` [Compound P-0020, 2-[2,5-difluoro-4-[2-[(1-methylimidazol-4-yl)amino]pyrimidin-5-yl]phenyl]-N-[4-(trifluoromethyl)-2-pyridyl]acetamide]: the IC50 (in assay [1]; on c-KIT) was 0.0001 to 10 µM in each case.

For `O=C(Cc1ccc(-c2cnc(Nc3cnn(C4CC4)c3)nc2)cc1)Nc1ccc(C(F)(F)F)cn1` [Compound P-0236, 2-[4-[2-[(1-cyclopropylpyrazol-4-yl)amino]pyrimidin-5-yl]phenyl]-N-[5-(trifluoromethyl)-2-pyridyl]acetamide], the IC50 (in assay [1]; at c-KIT) was 0.0001 to 10 µM throughout.

On to `COCCn1cc(Nc2ncc(-c3ccc(CC(=O)Nc4cc(C(F)(F)F)ccn4)cc3)cn2)cn1` [Compound P-0222, 2-[4-[2-[[1-(2-methoxyethyl)pyrazol-4-yl]amino]pyrimidin-5-yl]phenyl]-N-[4-(trifluoromethyl)-2-pyridyl]acetamide], for which the IC50 (in assay [1]; at c-KIT) was 0.0001 to 10 µM in each case.

`CCn1cc(Nc2ncc(-c3ccc(CC(=O)Nc4ccc(C(F)(F)F)nc4)c(F)c3)cn2)cn1` [Compound P-0257, 2-[4-[2-[(1-ethylpyrazol-4-yl)amino]pyrimidin-5-yl]-2-fluoro-phenyl]-N-[6-(trifluoromethyl)-3-pyridyl]acetamide]: the IC50 (in assay [1]; on c-KIT) was 0.0001 to 10 µM in each case.
